This test deals with T1, human P2X4 receptor (Homo sapiens, UniProt Q99571).
T1 sequence (Q99571 1-388): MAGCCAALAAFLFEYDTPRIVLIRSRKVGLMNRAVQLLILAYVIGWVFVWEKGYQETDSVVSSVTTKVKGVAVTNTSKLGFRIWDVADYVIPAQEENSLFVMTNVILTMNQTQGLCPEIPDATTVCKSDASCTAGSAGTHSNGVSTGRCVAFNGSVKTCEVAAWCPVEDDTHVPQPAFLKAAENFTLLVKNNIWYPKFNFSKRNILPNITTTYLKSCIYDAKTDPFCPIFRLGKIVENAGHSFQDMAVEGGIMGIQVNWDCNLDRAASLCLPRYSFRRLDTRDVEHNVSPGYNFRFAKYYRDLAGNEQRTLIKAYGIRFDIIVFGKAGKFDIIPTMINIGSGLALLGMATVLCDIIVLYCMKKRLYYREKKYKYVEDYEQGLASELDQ
In words: P2X4 receptor antagonism: ATP-induced calcium change (Fura2-AM) in 1321N1 cells stably expressing human P2X4 receptor. It counts as cell-based. The following applies: ATP (10 μm)-induced maximal calcium change = 100% control, compound applied 10 minutes before ATP; for Inhibition ratio % (at 10^−5 M): Pharmacological Experimental 2. As for the experimental part: The P2X4 receptor antagonisms of the compounds according to the invention were determined in the following manner.
(§1) 1321N1 cells were transfected human P2X4 receptor-encoding expression vector using a EUGENE 6 transfection reagent (Roche). After cultivation of one week, it was confirmed that P2X4 receptor was stably expressed. Cells were loaded with Fura2-AM calcium fluorescent dye (SIGMA) and the fluorescence changes were monitored using Aqua-Cosmos (Hamamatsu Photonics). ATP (10 μm)-induced maximal […] calcium change was defined as 100% of control response to calculate the inhibition percentage of test compounds at each concentration. Test compounds were treated onto cells 10 minutes before ATP stimulation.
as §1, with “FuGENE” for “EUGENE”
The experimental procedures of Example 10 were repeated.

As for `O=C1CN=C(c2cccc(O)c2)c2ccc3ccccc3c2N1` [Example 2, 5-(3-Hydroxyphenyl)-1,3-dihydro-2H-naptho-[1,2-e]-1,4-diazepin-2-one], the inhibition ratio (at 10^−5M, Pharmacological Experimental 1) is recorded as 69%.
In the case of `O=C1CN=C(c2ccc(O)cc2)c2ccc3ccccc3c2N1` [Example 4, 5-(4-Hydroxyphenyl)-1,3-dihydro-2H-naptho-[1,2-e]-1,4-diazepin-2-one], the “Inhibition ratio % (at 10^−5 M)” value was 53%.
As to `O=C1CN=C(c2ccc(O)c(O)c2)c2ccc3ccccc3c2N1` [Example 9, 5-(3,4-Dihydroxyphenyl)-1,3-dihydro-2H-naptho[1,2-e]-1,4-diazepin-2-one], the “Inhibition ratio % (at 10^−5 M)” value is on record as 63%.

(Values after patent US20100256123A1, “P2X4 RECEPTOR ANTAGONIST” (NIPPON CHEMIPHAR CO., LTD., priority 2006, published 2010).)
